Reference: PubChem BioAssay (NCI)
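In this assay, cells in 96-well plates receive the compound at five concentrations for 48 hours. Endpoints are linearly interpolated between the surrounding concentrations. Definition used: TGI = concentration required for complete inhibition of growth.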

How the values were obtained:
Assay in all cases: DTP human tumour cell line panel, 48 h
[1] = tested on: PC-3 prostate
[2] = tested on: NCI-H522 lung
[3] = tested on: LOX IMVI melanoma
[4] = tested on: HCT-15 colon
[5] = tested on: OVCAR-5 ovarian
[6] = tested on: A498 renal
[7] = tested on: NCI-H460 lung
[8] = tested on: MDA-N
[9] = tested on: HCT-116 colon
[10] = tested on: OVCAR-4 ovarian
[11] = tested on: DU-145 prostate
[12] = tested on: SK-MEL-5 melanoma
[13] = tested on: 786-0 renal
[14] = tested on: SF-539 CNS
[15] = tested on: SF-295 CNS
[16] = tested on: SF-268 CNS
[17] = tested on: BT-549 breast
[18] = tested on: MOLT-4 leukemia
[19] = tested on: SNB-75 CNS
[20] = tested on: NCI-H23 lung
[21] = tested on: SK-MEL-28 melanoma
[22] = tested on: UACC-257 melanoma
[23] = tested on: SN12C renal
[24] = tested on: EKVX NSCLC
[25] = tested on: U251 CNS
[26] = tested on: OVCAR-3 ovarian
[27] = tested on: NCI/ADR-RES ovarian
[28] = tested on: COLO 205 colon
[29] = tested on: M14 melanoma
[30] = tested on: CCRF-CEM leukemia
[31] = tested on: CAKI-1 renal
[32] = tested on: SK-OV-3 ovarian
[33] = tested on: A549 NSCLC
[34] = tested on: HT29 colon
[35] = tested on: MCF7 breast
[36] = tested on: K-562 leukemia
[37] = tested on: MDA-MB-231 breast
[38] = tested on: ACHN renal
[39] = tested on: UO-31 renal
[40] = tested on: RPMI-8226 leukemia
[41] = tested on: OVCAR-8 ovarian
[42] = tested on: HL-60(TB) leukemia
[43] = tested on: HOP-62 NSCLC
[44] = tested on: SK-MEL-2 melanoma
[45] = tested on: SNB-19 CNS
[46] = tested on: MDA-MB-435
[47] = tested on: MALME-3M melanoma
[48] = tested on: T-47D breast
[49] = tested on: NCI-H226 lung
[50] = tested on: IGROV1 ovarian
[51] = tested on: KM12 colon
[52] = tested on: HCC-2998 colon
[53] = tested on: HS 578T breast
[54] = tested on: UACC-62 melanoma
[55] = tested on: HOP-92 NSCLC
[56] = tested on: TK-10 renal
[57] = tested on: RXF 393 renal
[58] = tested on: SW-620 colon

Compound `COC(=O)[C@]1(c2cc3ccccc3[nH]2)CC2CN(C(=O)OCc3ccccc3)C1CC2=O` (some centres undefined) has a TGI [1] of 39 µM, a TGI [2] of 66.8 µM and a TGI [3] of 66.6 µM. It also gave a TGI [4] greater than 100 µM, a TGI [5] of 27.9 µM and a TGI [6] of 42.9 µM. The TGI [7] was 77.6 µM, the TGI [8] was greater than 100 µM and the TGI [9] was greater than 100 µM. The TGI [10] was greater than 100 µM, the TGI [11] was greater than 100 µM and the TGI [12] was 34.5 µM. It also gave a TGI [13] greater than 100 µM, a TGI [14] greater than 100 µM and a TGI [15] greater than 100 µM. The TGI [16] was greater than 100 µM, the TGI [17] was 95.5 µM and the TGI [18] was 32.6 µM. For the same compound, the TGI [19] was 64.6 µM, the TGI [20] was greater than 100 µM and the TGI [21] was greater than 100 µM. For the same compound, the TGI [22] was greater than 100 µM, the TGI [23] was 80.6 µM and the TGI [24] was 43.7 µM. The TGI [25] was 34.1 µM, the TGI [26] was greater than 100 µM and the TGI [27] was greater than 100 µM. For the same compound, the TGI [28] was 30.1 µM, the TGI [29] was 75.1 µM and the TGI [30] was greater than 100 µM. It also gave a TGI [31] greater than 100 µM, a TGI [32] greater than 100 µM and a TGI [33] of 91.5 µM. It also gave a TGI [34] of 31.7 µM, a TGI [35] of 35.5 µM and a TGI [36] of 45.1 µM. The TGI [37] was 32.4 µM, the TGI [38] was 86 µM and the TGI [39] was greater than 100 µM. It also gave a TGI [40] of 38.9 µM, a TGI [41] greater than 100 µM and a TGI [42] of 44.4 µM. The TGI [43] was greater than 100 µM, the TGI [44] was 38.2 µM and the TGI [45] was greater than 100 µM. For the same compound, the TGI [46] was greater than 100 µM, the TGI [47] was 56.4 µM and the TGI [48] was 76.2 µM. It also gave a TGI [49] of 63.4 µM, a TGI [50] greater than 100 µM and a TGI [51] greater than 100 µM. For the same compound, the TGI [52] was greater than 100 µM, the TGI [53] was 62.4 µM and the TGI [54] was 58.7 µM. It also gave a TGI [55] of 87.8 µM, a TGI [56] greater than 100 µM and a TGI [57] of 68.2 µM. For the same compound, the TGI [58] was greater than 100 µM.

For `Cc1nc2c(cc1OCc1ccccc1)C(=O)C1=C(C2=O)C2OC(=O)CC2OC1(C)C` (centres undefined), the TGI [1] was 1.8 µM, the TGI [2] was 0.387 µM and the TGI [3] was 0.475 µM. It also gave a TGI [4] of 0.634 µM, a TGI [5] of 2.16 µM and a TGI [6] of 3.02 µM. It also gave a TGI [7] of 2.9 µM, a TGI [8] of 1.75 µM and a TGI [9] of 1.04 µM. The TGI [10] was 1.94 µM, the TGI [11] was 3.09 µM and the TGI [12] was 2.61 µM. The TGI [13] was 1.07 µM, the TGI [14] was 2.04 µM and the TGI [17] was 1.88 µM. It also gave a TGI [18] of 87.9 µM, a TGI [19] of 3.94 µM and a TGI [20] of 2.32 µM. The TGI [21] was 1.14 µM, the TGI [22] was 1.93 µM and the TGI [23] was 0.443 µM. For the same compound, the TGI [24] was 3.63 µM, the TGI [25] was 2.14 µM and the TGI [27] was 28.9 µM. For the same compound, the TGI [28] was 1.15 µM, the TGI [29] was 1.77 µM and the TGI [30] was 0.451 µM. The TGI [31] was 1.67 µM, the TGI [33] was 21.2 µM and the TGI [34] was 1.41 µM. For the same compound, the TGI [35] was 0.339 µM, the TGI [37] was 1.51 µM and the TGI [38] was 1.86 µM. For the same compound, the TGI [39] was 3.24 µM, the TGI [40] was greater than 100 µM and the TGI [41] was 12.3 µM. It also gave a TGI [42] of 0.371 µM, a TGI [43] of 2.87 µM and a TGI [45] of 5.65 µM. The TGI [46] was 1.8 µM, the TGI [47] was 2.25 µM and the TGI [48] was 1.23 µM. It also gave a TGI [49] of 2.98 µM, a TGI [50] of 1.31 µM and a TGI [51] of 2 µM. It also gave a TGI [52] of 1.91 µM, a TGI [53] of 0.583 µM and a TGI [54] of 0.322 µM. For the same compound, the TGI [55] was 1.42 µM, the TGI [56] was 2.75 µM and the TGI [57] was 1.64 µM.
